Experimental data as given in patent US20140357487A1, “PLANTS HAVING INCREASED TOLERANCE TO HERBICIDES” (BASF SE, priority 2011, published 2014).

Columns and labels:
[1] = target: T1, Hordeum HPPD variant L353M, P321R, L320N (Hordeum vulgare, UniProt O48604, L320N/L353M/P321R); experiment: HPPD activity assay, Hordeum HPPD mutant L353M, P321R, L320N; format: biochemical; conditions: normalized on Hordeum wild-type HPPD
T1 construct: His (N); made in house; host or cells: E. coli BL21 (DE3)
Procedure: (§1) HPPD produces homogentisic acid and CO2 from 4-hydroxyphenylpyruvate (4-HPP) and O2. The activity assay for HPPD is based on the analysis of homogentisic acid by reversed phase HPLC.
(§2) The assay mixture can contain 150 mM potassium phosphate buffer pH 7.0, 50 mM L-ascorbic acid, 1 μM FeSO4 and 7 μg of purified enzyme in a total volume of 1 ml.
(§3) Inhibitors are dissolved in DMSO (dimethylsulfoxide) to a concentration of 20 mM or 0.5 mM, respectively. From this stock solution serial five-fold dilutions are prepared in DMSO, which are used in the assay. The respective inhibitor solution accounts for 1% of the assay volume. […] After a preincubation of 30 min the reaction is started by adding 4-HPP to a final concentration of 0.1 mM. The reaction is allowed to proceed for 120 min at room temperature. The reaction is stopped by addition of 100 μl of 4.5 M phosphoric acid.
(§4) Activities are normalized by setting the uninhibited enzyme activity to 100%. IC50 values are calculated using non-linear regression.
(§5) The assay mixture can contain 150 mM potassium phosphate buffer pH 7.0, 50 mM L-ascorbic acid, 100 μM Catalase (Sigma-Aldrich), 1 μM FeSO4 and 0.2 units of purified HPPD enzyme in a total volume of 505 μl. 1 unit is defined as the amount of enzyme that is required to produce 1 nmol of HGA per minute at 20° C.
(§6) Inhibitors are dissolved in DMSO (dimethylsulfoxide) to a concentration of 0.5 mM. From this stock solution serial five-fold dilutions are prepared in DMSO, which are used in the assay. The respective inhibitor solution accounts for 1% of the assay volume. […] Activities are normalized by setting the uninhibited enzyme activity to 100%. IC50 values are calculated using non-linear regression.
(§7) Purified, mutant HPPD enzymes are obtained by the methods described above. Dose response and kinetic measurements are carried out using the described HPPD activity assay. Apparent michaelis constants (Km) and maximal reaction velocities (Vmax) are calculated by non-linear regression with the software GraphPad Prism 5 (GraphPad Software, La Jolla, USA) using a substrate inhibition model.
(§8) Field performance of the optimized HPPD enzyme, which is used as a herbicide tolerance trait may depend not only on its lack of sensitivity towards HPPD inhibiting herbicides but also on its activity. To assess the potential performance of a herbicide tolerance trait a tolerance index (TI) is calculated using the following formula: […]
(§9) Easy comparison and ranking of each trait is enabled by normalizing tolerance indexes on Arabidopsis or Hordeum wild-type HPPD.

Rhodococcus HPPD2 = experiment: HPPD activity assay, Rhodococcus HPPD2; format: biochemical; conditions: normalized on Arabidopsis wild-type HPPD
Procedure: as §1, §2
(§10) Inhibitors are dissolved in DMSO (dimethylsulfoxide) to a concentration of 20 mM or 0.5 mM, respectively. From this stock solution serial five-fold dilutions are prepared in DMSO, which are used in the assay. The respective inhibitor solution accounts for 1% of the assay volume. Thus, final inhibitor concentrations range from 200 μM to 2.5 nM or from 5 μM to 63 pM, respectively. After a preincubation of 30 min the reaction is started by adding 4-HPP to a final concentration of 0.1 mM. The reaction is allowed to proceed for 120 min at room temperature. The reaction is stopped by addition of 100 μl of 4.5 M phosphoric acid.
as §4
(§11) The assay mixture can contain 150 mM potassium phosphate buffer pH 7.0, 50 mM L-ascorbic acid, 100 μM Catalase (Sigma-Aldrich), 1 μM FeSO4 and 0.2 units of purified HPPD enzyme in a total volume of 505 μl. […]
(§12) Inhibitors are dissolved in DMSO (dimethylsulfoxide) to a concentration of 0.5 mM. […] IC50 values are calculated using non-linear regression.
(§13) Using methods which are described in the above examples or well known in the art, purified, recombinant wildtype HPPD enzymes are characterized with respect to their kinetic properties and sensitivity towards HPPD inhibiting herbicides. Apparent michaelis constants (Km) and maximal reaction velocities (Vmax) are calculated by non-linear regression with the software GraphPad Prism 5 (GraphPad Software, La Jolla, USA) using a substrate inhibition model. […] Weighted means (by standard error) of Km and […] values are calculated from at least three independent experiments. […]

[2] = target: T2, Hordeum HPPD variant L320N (Hordeum vulgare, UniProt O48604, A164G/L320N/R146V/R147D/R148G); experiment: HPPD activity assay, Hordeum HPPD mutant L320N; format: biochemical; conditions: normalized on Hordeum wild-type HPPD
T2 construct: His (N); made in house; host or cells: E. coli BL21 (DE3)
T2 sequence (O48604 whole entry R146V/R147D/R148G/A164G/L320N): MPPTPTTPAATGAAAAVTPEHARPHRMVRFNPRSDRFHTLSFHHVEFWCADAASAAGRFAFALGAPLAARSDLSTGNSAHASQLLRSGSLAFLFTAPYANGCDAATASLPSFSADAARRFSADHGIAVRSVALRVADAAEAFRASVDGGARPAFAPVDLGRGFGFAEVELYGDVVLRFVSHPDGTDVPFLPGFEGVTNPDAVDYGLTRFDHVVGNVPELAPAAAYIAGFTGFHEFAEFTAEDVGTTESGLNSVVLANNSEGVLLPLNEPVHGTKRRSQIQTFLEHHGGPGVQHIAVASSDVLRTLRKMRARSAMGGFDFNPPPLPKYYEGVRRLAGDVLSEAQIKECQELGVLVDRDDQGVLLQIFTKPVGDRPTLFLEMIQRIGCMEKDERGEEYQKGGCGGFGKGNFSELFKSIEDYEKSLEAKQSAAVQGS
Procedure: as §1, §2, §3, §4, §5, §6, §7, §8, §9

[3] = target: T3, Hordeum HPPD variant L353M, P321R, V212I (Hordeum vulgare, UniProt O48604, L353M/P321R/V212I); experiment: HPPD activity assay, Hordeum HPPD mutant L353M, P321R, V212I; format: biochemical; conditions: normalized on Hordeum wild-type HPPD
T3 construct: His (N); made in house; host or cells: E. coli BL21 (DE3)
T3 sequence (O48604 whole entry R146V/R147D/R148G/A164G/V212I/P321R/L353M): as the sequence (O48604 whole entry R146V/R147D/R148G/A164G/L320N) above, with V212I, N320L, P321R, L353M counted along it
Procedure: as §1, §2, §3, §4, §5, §6, §7, §8, §9

[4] = target: T4, Hordeum HPPD variant L320H (Hordeum vulgare, UniProt O48604, A164G/L320H/R146V/R147D/R148G); experiment: HPPD activity assay, Hordeum HPPD mutant L320H; format: biochemical; conditions: normalized on Hordeum wild-type HPPD
T4 construct: His (N); made in house; host or cells: E. coli BL21 (DE3)
T4 sequence (O48604 whole entry R146V/R147D/R148G/A164G/L320H): as the sequence (O48604 whole entry R146V/R147D/R148G/A164G/L320N) above, with N320H counted along it
Procedure: as §1, §2, §3, §4, §5, §12
Purified, mutant HPPD enzymes are obtained by the methods described above. […] Apparent michaelis constants (Km) and maximal reaction velocities (Vmax) are calculated by non-linear regression with the software GraphPad Prism 5 (GraphPad Software, La Jolla, USA) using a substrate inhibition model.
as §8

Avena HPPD = experiment: HPPD activity assay, Avena HPPD; format: biochemical, Avena sativa; conditions: normalized on Arabidopsis wild-type HPPD
Procedure: as §1, §2, §10, §4, §5
Inhibitors are dissolved in DMSO (dimethylsulfoxide) to a concentration of 0.5 mM. From this stock solution serial five-fold dilutions are prepared in DMSO, which are used in the assay. The respective inhibitor solution accounts for 1% of the assay volume. Thus, final inhibitor concentrations range from 5 μM to 320 pM, respectively. Activities are normalized by setting the uninhibited enzyme activity to 100%. IC50 values are calculated using non-linear regression.
as §13
Field performance of the HPPD enzyme, which is used as a herbicide tolerance trait, may depend not only on its lack of sensitivity towards HPPD inhibiting herbicides but also on its activity. To assess the potential performance of a herbicide tolerance trait a tolerance index (TI) is calculated using the following formula: […]

Picrophilus HPPD = experiment: HPPD activity assay, Picrophilus HPPD; format: biochemical; conditions: normalized on Arabidopsis wild-type HPPD
Procedure: as §1, §2, §10, §4, §11, §12, §13

T1 sequence (O48604 whole entry R146V/R147D/R148G/A164G/L320N/P321R/L353M): as the sequence (O48604 whole entry R146V/R147D/R148G/A164G/L320N) above, with P321R, L353M counted along it

SMILES	Normalized tolerance index TI [1]	Normalized tolerance index TI (Rhodococcus HPPD2)	Normalized tolerance index TI [2]	Normalized tolerance index TI [3]	Normalized tolerance index TI [4]	Normalized tolerance index TI (Avena HPPD)	Normalized tolerance index TI (Picrophilus HPPD)
CC1(C)c2cccnc2C(O)=C(c2ccc(Cl)nc2Cl)S1(=O)=O [Inhibitor 2, 7-(2,6-dichloro-3-pyridyl)-5,5-dimethyl-6,6-dioxo-thiopyrano[4,3-b]pyridin-8-ol]	1.4	11.4	1.7	1.5	2.7	2.8	86.4
COCCOCc1c(Cl)ccc(C2=C(O)c3ncccc3C(C)(C)S2(=O)=O)c1Cl [Inhibitor 3, 7-[2,4-dichloro-3-(2-methoxyethoxymethyl)phenyl]-5,5-dimethyl-6,6-dioxo-thiopyrano[4,3-b]pyridin-8-ol]	1.9	2.1	1.9	1.9	7.4	0.1	17.2
CC1=NOC(c2c(Cl)ccc(C3=C(O)c4ncccc4C(C)(C)S3(=O)=O)c2Cl)C1 (stereo not drawn) [Inhibitor 1, 7-[2,4-dichloro-3-(3-methyl-4,5-dihydroisoxazol-5-yl)phenyl]-5,5-dimethyl-6,6-dioxo-thiopyrano[4,3-b]pyridin-8-ol]	2.1	73	2	2.2	8.5	4.7	283
